Laboratory results: PubChem BioAssay (NCI)
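All cell lines were grown in 96-well plates and treated with compound for 48 hours. GI50: concentration for 50% inhibition of growth. TGI marks complete inhibition of growth.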

Columns and labels:
Assay in all cases: inhibition of tumour cell growth, NCI panel, 48 h
DU-145 prostate = tested on: DU-145 prostate
MCF7 breast = tested on: MCF7 breast
NCI/ADR-RES ovarian = tested on: NCI/ADR-RES ovarian
MDA-MB-231 breast = tested on: MDA-MB-231 breast
MDA-MB-435 = tested on: MDA-MB-435
BT-549 breast = tested on: BT-549 breast

COc1ccc2nc3cccc([N+](=O)[O-])c3c(NCCNCCN(C)C)c2c1
GI50 (DU-145 prostate): 0.0374 µM
TGI (DU-145 prostate): 0.909 µM
GI50 (MCF7 breast): 0.0192 µM
TGI (MCF7 breast): 0.221 µM
GI50 (NCI/ADR-RES ovarian): 0.884 µM
TGI (NCI/ADR-RES ovarian): 4.67 µM
GI50 (MDA-MB-231 breast): 0.658 µM
TGI (MDA-MB-231 breast): 4.17 µM
GI50 (MDA-MB-435): 0.111 µM
TGI (MDA-MB-435): 0.248 µM
GI50 (BT-549 breast): 0.418 µM
TGI (BT-549 breast): 1.06 µM

CC(C)(C)c1nc(-c2cccc(NS(=O)(=O)c3c(F)cccc3F)c2F)c(-c2ccnc(N)n2)s1
GI50 (DU-145 prostate): 58.5 µM
TGI (DU-145 prostate): > 100 µM
GI50 (MCF7 breast): 27.3 µM
TGI (MCF7 breast): > 100 µM
GI50 (NCI/ADR-RES ovarian): 50.9 µM
TGI (NCI/ADR-RES ovarian): > 100 µM
GI50 (MDA-MB-231 breast): 7.19 µM
TGI (MDA-MB-231 breast): > 69.9 µM
GI50 (MDA-MB-435): < 0.01 µM
TGI (MDA-MB-435): > 100 µM
GI50 (BT-549 breast): 37.5 µM
TGI (BT-549 breast): > 72.1 µM

O=C1Nc2ccccc2/C1=C/c1cn(CC(O)Cn2cc(/C=C3\C(=O)Nc4ccccc43)c3ccccc32)c2ccccc12 (configuration not stated)
GI50 (DU-145 prostate): 1.55 µM
TGI (DU-145 prostate): 2.95 µM
GI50 (NCI/ADR-RES ovarian): 12.1 µM
TGI (NCI/ADR-RES ovarian): 57.1 µM
GI50 (MDA-MB-231 breast): 1.27 µM
TGI (MDA-MB-231 breast): 2.71 µM
GI50 (MDA-MB-435): 1.81 µM
TGI (MDA-MB-435): 3.46 µM

CC/C(Cc1ccccc1)=C(/c1ccc(O)cc1)c1ccc(OCCN2CCCC2)cc1
GI50 (DU-145 prostate): 1.94 µM
TGI (DU-145 prostate): 3.88 µM
GI50 (MCF7 breast): 0.0211 µM
TGI (MCF7 breast): 2.22 µM
GI50 (NCI/ADR-RES ovarian): 2.1 µM
TGI (NCI/ADR-RES ovarian): 5.44 µM
GI50 (MDA-MB-231 breast): 2.1 µM
TGI (MDA-MB-231 breast): 4.05 µM
GI50 (MDA-MB-435): 1.67 µM
TGI (MDA-MB-435): 3.23 µM

COc1cc(Nc2ncnc(Nc3ccc4c(n3)NC(=O)C(C)(C)O4)n2)cc(OC)c1OC
GI50 (DU-145 prostate): 2.03 µM
TGI (DU-145 prostate): > 100 µM
GI50 (MCF7 breast): 1.32 µM
TGI (MCF7 breast): > 100 µM
TGI (NCI/ADR-RES ovarian): > 100 µM
GI50 (MDA-MB-231 breast): 1.33 µM
TGI (MDA-MB-231 breast): > 100 µM
GI50 (MDA-MB-435): 2.09 µM
TGI (MDA-MB-435): > 100 µM

Cc1c(C)c2c(c(C)c1OCC(=O)O)CC[C@@](C)(CCC[C@@H](C)CCC[C@@H](C)CCCC(C)C)O2
GI50 (DU-145 prostate): 75.7 µM
TGI (DU-145 prostate): 147 µM
GI50 (MCF7 breast): 74.6 µM
TGI (MCF7 breast): 199 µM
GI50 (NCI/ADR-RES ovarian): 78.7 µM
TGI (NCI/ADR-RES ovarian): 210 µM
GI50 (MDA-MB-231 breast): 95.2 µM
TGI (MDA-MB-231 breast): 218 µM
GI50 (MDA-MB-435): 72.6 µM
TGI (MDA-MB-435): 142 µM
GI50 (BT-549 breast): 71.7 µM
TGI (BT-549 breast): 151 µM

Oc1c(O)c(Cl)c(Cl)c(Cl)c1Cl
GI50 (DU-145 prostate): 7.1 µM
TGI (DU-145 prostate): > 100 µM
GI50 (MCF7 breast): 3.25 µM
TGI (MCF7 breast): 16.2 µM
GI50 (NCI/ADR-RES ovarian): 3.01 µM
TGI (NCI/ADR-RES ovarian): 10.3 µM
GI50 (MDA-MB-231 breast): 5.1 µM
TGI (MDA-MB-231 breast): 38.5 µM
GI50 (MDA-MB-435): 3.42 µM
TGI (MDA-MB-435): 18.1 µM
GI50 (BT-549 breast): 4.51 µM
TGI (BT-549 breast): 31.5 µM

O=C(Oc1ccccc1)C(Br)C(Br)c1ccccc1 (configuration not stated)
GI50 (DU-145 prostate): 3.18 µM
TGI (DU-145 prostate): 9.38 µM
GI50 (MCF7 breast): 1.68 µM
TGI (MCF7 breast): 11.4 µM
GI50 (NCI/ADR-RES ovarian): 3.71 µM
TGI (NCI/ADR-RES ovarian): 19.9 µM
GI50 (MDA-MB-231 breast): 14.4 µM
TGI (MDA-MB-231 breast): 29.6 µM
GI50 (MDA-MB-435): 1.62 µM
TGI (MDA-MB-435): 3.09 µM
GI50 (BT-549 breast): 11.7 µM
TGI (BT-549 breast): 25.6 µM

C=C1C(=O)O[C@H]2[C@H]1CC/C(COC(=O)NCCc1cccc(OC)c1)=C\CC[C@@]1(C)O[C@@H]21
GI50 (DU-145 prostate): 0.892 µM
TGI (DU-145 prostate): 2.16 µM
GI50 (MCF7 breast): 0.494 µM
TGI (MCF7 breast): 2.1 µM
GI50 (NCI/ADR-RES ovarian): 2.95 µM
TGI (NCI/ADR-RES ovarian): 10.8 µM
GI50 (MDA-MB-231 breast): 1.56 µM
TGI (MDA-MB-231 breast): 3.47 µM
GI50 (MDA-MB-435): 1.58 µM
TGI (MDA-MB-435): 3.7 µM
GI50 (BT-549 breast): 1.51 µM
TGI (BT-549 breast): 3.12 µM

CCOc1ccc(C(C)=O)cc1NC(=O)c1cccc(-c2nnn(CC)n2)c1
GI50 (DU-145 prostate): 1.07 µM
TGI (DU-145 prostate): > 100 µM
GI50 (MCF7 breast): 0.333 µM
TGI (MCF7 breast): > 100 µM
GI50 (NCI/ADR-RES ovarian): 0.511 µM
TGI (NCI/ADR-RES ovarian): 13.3 µM
GI50 (MDA-MB-231 breast): 1.62 µM
TGI (MDA-MB-231 breast): 58.5 µM
GI50 (MDA-MB-435): 0.308 µM
TGI (MDA-MB-435): 2.34 µM
GI50 (BT-549 breast): 0.961 µM
TGI (BT-549 breast): > 100 µM

Nc1ccc(-c2ccc3ncc4ccc(=O)n(-c5cccc(C(F)(F)F)c5)c4c3c2)cn1
GI50 (DU-145 prostate): < 0.01 µM
TGI (DU-145 prostate): 30.8 µM
GI50 (MCF7 breast): < 0.01 µM
TGI (MCF7 breast): 12.8 µM
GI50 (NCI/ADR-RES ovarian): 0.02 µM
TGI (NCI/ADR-RES ovarian): 13.1 µM
GI50 (MDA-MB-231 breast): < 0.0141 µM
TGI (MDA-MB-231 breast): 2.21 µM
GI50 (MDA-MB-435): < 0.01 µM
TGI (MDA-MB-435): 3.26 µM
GI50 (BT-549 breast): < 0.01 µM
TGI (BT-549 breast): 0.232 µM

CC1=C(C#N)C(/C=C(\Cl)c2ccc(F)cc2)C(C#N)=C(C)N1
GI50 (DU-145 prostate): > 100 µM
TGI (DU-145 prostate): > 100 µM
GI50 (MCF7 breast): > 100 µM
TGI (MCF7 breast): > 100 µM
GI50 (NCI/ADR-RES ovarian): > 100 µM
TGI (NCI/ADR-RES ovarian): > 100 µM
GI50 (MDA-MB-231 breast): 94.9 µM
TGI (MDA-MB-231 breast): > 100 µM
GI50 (MDA-MB-435): > 100 µM
TGI (MDA-MB-435): > 100 µM
GI50 (BT-549 breast): > 100 µM
TGI (BT-549 breast): > 100 µM

COc1ccc(-c2nc(N)c(C#N)c3c2CCOc2c-3ccc3ccccc23)cc1
GI50 (MCF7 breast): 20.2 µM
TGI (MCF7 breast): > 100 µM
GI50 (NCI/ADR-RES ovarian): 17.5 µM
TGI (NCI/ADR-RES ovarian): 57.8 µM
GI50 (MDA-MB-231 breast): 10.6 µM
TGI (MDA-MB-231 breast): 33.8 µM
GI50 (MDA-MB-435): 46.6 µM
TGI (MDA-MB-435): > 100 µM

Cc1ccc(O)c(NC2=C(Cl)C(=O)N(Cc3ccccc3)C2=O)c1
GI50 (DU-145 prostate): 27.8 µM
TGI (DU-145 prostate): 95.9 µM
GI50 (MCF7 breast): 16.2 µM
TGI (MCF7 breast): 48.8 µM
GI50 (NCI/ADR-RES ovarian): 38.1 µM
TGI (NCI/ADR-RES ovarian): > 100 µM
GI50 (MDA-MB-231 breast): 12.6 µM
TGI (MDA-MB-231 breast): 32.3 µM
GI50 (MDA-MB-435): 28.4 µM
TGI (MDA-MB-435): 76.1 µM
GI50 (BT-549 breast): 18.1 µM
TGI (BT-549 breast): 67.3 µM

COc1cc(NC(C)CCCNC(C)C)c2ncccc2c1OC (configuration not stated)
GI50 (DU-145 prostate): > 100 µM
TGI (DU-145 prostate): > 100 µM
GI50 (MCF7 breast): 29.6 µM
TGI (MCF7 breast): > 100 µM
GI50 (NCI/ADR-RES ovarian): > 100 µM
TGI (NCI/ADR-RES ovarian): > 100 µM
GI50 (MDA-MB-231 breast): > 100 µM
TGI (MDA-MB-231 breast): > 100 µM
GI50 (MDA-MB-435): 54.6 µM
TGI (MDA-MB-435): > 100 µM

C[C@H](NC(=O)c1c(C(F)F)nn(C)c1Oc1cccc(C(F)(F)F)c1)c1ccc(C(=O)O)cc1
GI50 (DU-145 prostate): > 100 µM
TGI (DU-145 prostate): > 100 µM
GI50 (MCF7 breast): > 100 µM
TGI (MCF7 breast): > 100 µM
GI50 (NCI/ADR-RES ovarian): > 100 µM
TGI (NCI/ADR-RES ovarian): > 100 µM
GI50 (MDA-MB-231 breast): > 100 µM
TGI (MDA-MB-231 breast): > 100 µM
GI50 (MDA-MB-435): > 100 µM
TGI (MDA-MB-435): > 100 µM
GI50 (BT-549 breast): > 100 µM
TGI (BT-549 breast): > 100 µM

COc1ccc2[nH]c(C(=O)OCc3ccc4cccc(O)c4n3)cc2c1
GI50 (DU-145 prostate): 1.53 µM
TGI (DU-145 prostate): 2.93 µM
GI50 (MCF7 breast): 0.723 µM
TGI (MCF7 breast): 2.79 µM
GI50 (NCI/ADR-RES ovarian): 1.94 µM
TGI (NCI/ADR-RES ovarian): 5.91 µM
GI50 (MDA-MB-231 breast): 1.17 µM
TGI (MDA-MB-231 breast): 2.49 µM
GI50 (MDA-MB-435): 1.52 µM
TGI (MDA-MB-435): 3.13 µM
GI50 (BT-549 breast): 1.69 µM
TGI (BT-549 breast): 3.74 µM

COc1ccc2c(c1)O/C(=C\c1cccc(OCC(=O)Nc3nc(C)c(C)s3)c1)C2=O
GI50 (DU-145 prostate): 0.189 µM
TGI (DU-145 prostate): 0.404 µM
GI50 (MCF7 breast): 3.17 µM
TGI (MCF7 breast): 50.1 µM
GI50 (NCI/ADR-RES ovarian): 21.3 µM
TGI (NCI/ADR-RES ovarian): > 100 µM
GI50 (MDA-MB-231 breast): 0.95 µM
GI50 (MDA-MB-435): 7.29 µM
TGI (MDA-MB-435): > 100 µM
GI50 (BT-549 breast): 16.7 µM
TGI (BT-549 breast): 55.2 µM

Cn1cncc1-c1c(F)cncc1NC(=O)c1c(N)nn2cc(F)cnc12
GI50 (DU-145 prostate): 0.803 µM
TGI (DU-145 prostate): 49.3 µM
GI50 (MCF7 breast): 0.0515 µM
TGI (MCF7 breast): 56.4 µM
GI50 (NCI/ADR-RES ovarian): 1.45 µM
TGI (NCI/ADR-RES ovarian): > 100 µM
GI50 (MDA-MB-231 breast): 4.72 µM
TGI (MDA-MB-231 breast): > 100 µM
GI50 (MDA-MB-435): 0.933 µM
TGI (MDA-MB-435): > 100 µM
GI50 (BT-549 breast): 0.838 µM
TGI (BT-549 breast): 15.4 µM
